According to patent US11051515B2, “3-acyl-benzamides and their use as herbicides” (Bayer Aktiengesellschaft, priority 2017, dated 2021):

Assays:
AVEFA [1] = assay: Pre-emergence action against AVEFA; assay type: in vivo, Avena fatua; conditions: Avena fatua, 504 h, dosage 320 g/ha, scored visually after 3 weeks vs untreated controls, read-out: Pre-emergence action against AVEFA (herbicidal activity)
How it was run: (§1)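 Seeds sown in sandy loam in wood-fiber pots and covered with soil. Greenhouse growth; visual damage scored after 3 weeks versus untreated controls (100% = dead, 0% = like control).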

SETVI [2] = assay: Pre-emergence action against SETVI; assay type: in vivo, Setaria viridis; conditions: for pest or weed control at 320 g/ha: Setaria viridis, 504 h, pre-emergence, dosage 320 g/ha, scored visually after 3 weeks vs untreated controls, read-out: SETVI (Table B8, pre-emergence herbicidal activity)
How it was run: as §1

ABUTH [3] = assay: Pre-emergence action against ABUTH; assay type: in vivo, Abutilon theophrasti; conditions: for pest or weed control at 320 g/ha: Abutilon theophrasti, 504 h, pre-emergence, dosage 320 g/ha, scored visually after 3 weeks vs untreated controls, read-out: Pre-emergence action against ABUTH (herbicidal activity)
How it was run: as §1

AMARE [4] = assay: Pre-emergence action against AMARE; assay type: in vivo, Amaranthus retroflexus; conditions: for pest or weed control at 320 g/ha: Amaranthus retroflexus, 504 h, pre-emergence, dosage 320 g/ha, scored visually after 3 weeks vs untreated controls, read-out: Pre-emergence action against AMARE (herbicidal activity)
How it was run: as §1

MATIN [5] = assay: Pre-emergence action against MATIN; assay type: in vivo, Matricaria inodora; conditions: for pest or weed control at 320 g/ha: Tripleurospermum inodorum, 504 h, Dosage 320 g/ha, pre-emergence
How it was run: as §1

PHBPU = assay: Pre-emergence action against PHBPU; assay type: in vivo, Pharbitis purpurea; conditions: for pest or weed control at 320 g/ha: Ipomoea purpurea, 504 h, Dosage 320 g/ha, pre-emergence
How it was run: as §1

POLCO [6] = assay: Pre-emergence action against POLCO; assay type: in vivo, Polygonum convolvulus; conditions: for pest or weed control at 320 g/ha: Fallopia convolvulus, 504 h, Dosage 320 g/ha, pre-emergence; for Herbicidal efficacy against POLCO: 80 g of a.i./ha
How it was run: as §1

VIOTR [7] = assay: Pre-emergence action against VIOTR; assay type: in vivo, Viola tricolor; conditions: for pest or weed control at 320 g/ha: Viola tricolor, 504 h, Dosage 320 g/ha, pre-emergence
How it was run: as §1

VERPE [8] = assay: Pre-emergence action against VERPE; assay type: in vivo, Veronica persica; conditions: for pest or weed control at 320 g/ha: Veronica persica, 504 h, Dosage 320 g/ha, pre-emergence
How it was run: as §1

AVEFA [9] = assay: Post-emergence action against AVEFA; assay type: in vivo, Avena fatua; conditions: for pest or weed control at 80 g/ha: Avena fatua, 504 h, post-emergence, dosage 80 g/ha, visual assessment about 3 weeks after treatment vs untreated controls, read-out: Post-emergence action against AVEFA (herbicidal action in percent)
How it was run: (§2)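 Post-emergence foliar spray on greenhouse plants at the one-leaf stage, using wettable-powder or emulsion-concentrate formulations in water (600 to […], plus 0.2% wetting agent). Damage scored by eye roughly 3 weeks later against untreated plants: 0% = like control, 100% = dead.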

ECHCG = assay: Post-emergence action against ECHCG; assay type: in vivo, Echinochloa crus-galli; conditions: for pest or weed control at 80 g/ha: Echinochloa crus-galli, 504 h, post-emergence, dosage 80 g/ha, visual assessment about 3 weeks after treatment vs untreated controls, read-out: Post-emergence action against ECHCG (herbicidal action in percent); for Herbicidal efficacy against ECHCG: Table V16, post-emergence
How it was run: as §2

SETVI [10] = assay: Post-emergence action against SETVI; assay type: in vivo, Setaria viridis; conditions: for pest or weed control at 80 g/ha: Setaria viridis, 504 h, post-emergence, dosage 80 g/ha, visual assessment about 3 weeks after treatment vs untreated controls, read-out: Post-emergence action against SETVI (herbicidal action in percent)
How it was run: as §2

ABUTH [11] = assay: Post-emergence action against ABUTH; assay type: in vivo, Abutilon theophrasti; conditions: Abutilon theophrasti, 504 h; post-emergence, dosage 80 g/ha, visual assessment about 3 weeks after treatment vs untreated controls; read-out: Post-emergence action against ABUTH (herbicidal action in percent)
How it was run: as §2

AMARE [12] = assay: Post-emergence action against AMARE; assay type: in vivo, Amaranthus retroflexus; conditions: for pest or weed control at 80 g/ha: Amaranthus retroflexus, 504 h, post-emergence, dosage 80 g/ha, visual assessment about 3 weeks after treatment vs untreated controls, read-out: Post-emergence action against AMARE (herbicidal action in percent)
How it was run: as §2

MATIN [13] = assay: Post-emergence action against MATIN; assay type: in vivo, Matricaria inodora; conditions: for pest or weed control at 80 g/ha: Tripleurospermum inodorum, 504 h, post-emergence, dosage 80 g/ha, visual assessment about 3 weeks after treatment vs untreated controls, read-out: Post-emergence action against MATIN (herbicidal action in percent)
How it was run: as §2

POLCO [14] = assay: Post-emergence action against POLCO; assay type: in vivo, Polygonum convolvulus; conditions: Fallopia convolvulus, 504 h; post-emergence, dosage 80 g/ha
How it was run: as §2

VIOTR [15] = assay: Post-emergence action against VIOTR; assay type: in vivo, Viola tricolor; conditions: for pest or weed control at 80 g/ha: Viola tricolor, 504 h, post-emergence, dosage 80 g/ha
How it was run: as §2

VERPE [16] = assay: Post-emergence action against VERPE; assay type: in vivo, Veronica persica; conditions: Veronica persica, 504 h, dosage 80 g/ha
How it was run: as §2

CYPES = assay: Post-emergence action against CYPES; assay type: in vivo, Cyperus esculentus; conditions: for pest or weed control at 80 g/ha: Cyperus esculentus, 504 h, post-emergence, dosage 80 g/ha, visual assessment about 3 weeks after treatment vs untreated controls, read-out: Post-emergence action against CYPES (herbicidal action in percent)
How it was run: as §2

[17] = Table V9, pre-emergence, 80 g of a.i./ha
[18] = Table V7, pre-emergence, 20 g of a.i./ha
[19] = Table V18, post-emergence, 20 g of a.i./ha
[20] = Table V17, post-emergence, 5 g of a.i./ha
[21] = Table V3, pre-emergence, 80 g of a.i./ha
[22] = Table V4, pre-emergence, 20 g of a.i./ha
[23] = Table V14, post-emergence, 5 g of a.i./ha
[24] = Table V16, post-emergence, 5 g of a.i./ha
[25] = Table V16, post-emergence, 20 g of a.i./ha

Row | Structure (SMILES) | pest or weed control at 320 g/ha (AVEFA [1]) | pest or weed control at 320 g/ha (SETVI [2]) | pest or weed control at 320 g/ha (ABUTH [3]) | pest or weed control at 320 g/ha (AMARE [4]) | pest or weed control at 320 g/ha (MATIN [5]) | pest or weed control at 320 g/ha (PHBPU) | pest or weed control at 320 g/ha (POLCO [6]) | pest or weed control at 320 g/ha (VIOTR [7]) | pest or weed control at 320 g/ha (VERPE [8]) | pest or weed control at 80 g/ha (AVEFA [9]) | pest or weed control at 80 g/ha (ECHCG) | pest or weed control at 80 g/ha (SETVI [10]) | pest or weed control at 80 g/ha (ABUTH [11]) | pest or weed control at 80 g/ha (AMARE [12]) | pest or weed control at 80 g/ha (MATIN [13]) | pest or weed control at 80 g/ha (VIOTR [15]) | pest or weed control at 80 g/ha (VERPE [16]) | pest or weed control at 80 g/ha (CYPES) | other results
1 | CCCC(=O)c1c(C(F)(F)F)ccc(C(=O)Nc2nnnn2C)c1C [1-16] | 90% | 100% | 100% | 100% | 100% | 90% | 80% | 100% | 100% | 90% | 90% | 90% | 100% | 100% | 100% | 100% | 90% | – | pest or weed control at 80 g/ha (POLCO [14]): 100%
2 | Cc1c(C(=O)Nc2nnnn2C)ccc(S(C)(=O)=O)c1C(=O)C1CC1 [1-9] | 80% | 100% | 100% | 100% | 100% | – | – | 100% | – | 100% | 90% | 100% | 90% | 90% | 100% | 100% | 100% | 80% | Herbicidal efficacy against SETVI (SETVI [2]; [17]): 100; Herbicidal efficacy against ABUTH (ABUTH [3]; [18]): 100; Herbicidal efficacy against MATIN (MATIN [5]; [18]): 90; Herbicidal efficacy against PHBPU (PHBPU; Table V6, pre-emergence, 80 g of a.i./ha): 60; Herbicidal efficacy against POLCO (POLCO [6]; Table V6, pre-emergence): 40; Herbicidal efficacy against VIOTR (VIOTR [7]; [18]): 70; Herbicidal efficacy against VIOTR (VIOTR [7]; [17]): 100; Herbicidal efficacy against AVEFA (AVEFA [9]; [19]): 80; Herbicidal efficacy against CYPES (CYPES; [19]): 70; Herbicidal efficacy against SETVI (SETVI [10]; [19]): 100; Herbicidal efficacy against MATIN (MATIN [13]; [20]): 100; Herbicidal efficacy against MATIN (MATIN [13]; [19]): 100; Herbicidal efficacy against VIOTR (VIOTR [15]; [20]): 100
3 | CC(=O)c1c(S(C)(=O)=O)ccc(C(=O)Nc2nnnn2C)c1Cl [1-127] | 90% | 90% | 100% | 100% | 100% | 90% | 90% | 100% | 100% | 80% | 100% | 80% | 90% | 100% | 100% | 100% | 100% | 80% | Herbicidal efficacy against ABUTH (ABUTH [3]; [21]): 100; Herbicidal efficacy against ABUTH (ABUTH [3]; [22]): 90; Herbicidal efficacy against AMARE (AMARE [4]; [21]): 100; Herbicidal efficacy against MATIN (MATIN [5]; [21]): 90; Herbicidal efficacy against MATIN (MATIN [5]; [22]): 70; Herbicidal efficacy against POLCO (POLCO [6]; Table V1, pre-emergence): 70; Herbicidal efficacy against VIOTR (VIOTR [7]; Table V1, pre-emergence, 80 g of a.i./ha): 100; Herbicidal efficacy against VIOTR (VIOTR [7]; [21]): 100; Herbicidal efficacy against VERPE (VERPE [8]; [22]): 90; Herbicidal efficacy against ECHCG (ECHCG; 5 g of a.i./ha): 100; Herbicidal efficacy against ECHCG (ECHCG; 20 g of a.i./ha): 100; Herbicidal efficacy against AMARE (AMARE [12]; [23]): 100; Herbicidal efficacy against MATIN (MATIN [13]; [23]): 90; Herbicidal efficacy against MATIN (MATIN [13]; [24]): 90; Herbicidal efficacy against MATIN (MATIN [13]; [25]): 100; Herbicidal efficacy against VIOTR (VIOTR [15]; [24]): 100; Herbicidal efficacy against VIOTR (VIOTR [15]; [25]): 100
